Assay results from patent US20250195412A1, “PHARMACEUTICAL FORMULATIONS OF R-KETAMINE” (priority 2022, published 2025).
Values after ≈ are worked out from the molar mass of the structure shown. Values joined by “and” are separate entries in the source; they are usually repeats but may differ in a detail not shown here. Equal entries are not always repeated. “Also recorded” adds a separate entry of the source.

Assays:
[1] = Orientative stability examination of phosphate-buffered formulation, room temperature storage; type: physicochemical; conditions: 60 mg/mL in phosphate buffer pH 5.8, room temperature, two weeks
[2] = Phosphate buffer: content of filtered sample by HPLC, visual precipitation; type: physicochemical
Description: (§1) The ingredients for a 20 mM buffer and the appropriate amount of R-ketamine HCl (60 mg/ml, equaling 52.2 mg/ml free base) were weighed together and diluted in water for injection. Subsequently, the pH was adjusted, e.g. to 5.2. After filling up to the target volume, the mixture was stirred for a defined time and a sample was obtained under filtration (0.22 μm). This sample was analyzed for content by HPLC and for tonicity by freezing point depression.
(§2) Based on the previous results from the citrate buffer series experiment, the experiments with the phosphate buffer could be limited to pH 5.8. The nominal concentrations 60 and 70 mg/ml were investigated.
(§3) The solution was prepared and tested as described for the citrate buffer.

[3] = Log P (general properties)
[4] = Cyclodextrin inclusion: API content of filtered solution by HPLC; type: physicochemical; conditions: nominal 100 mg/ml (86.96 mg/ml free base)
Description: (§4) The effect of hydroxypropyl β-cyclodextrin (HPB) on the solubility of R-ketamine at different pH values was investigated. Varied factors were pH of the solution and the concentration of HPB. Response factors were tonicity, which was determined by freezing point depression, and API content, which was measured by HPLC, of a filtered (0.22 μm) solution.
(§5) After dissolving the active ingredient (100 mg/ml, 86.96 mg/ml free base), a defined amount of HPB was added. After complete solution of the two components, the target pH was adjusted with sodium hydroxide solution (1 M). The resulting solution was filtered through a syringe filter (0.22 μm) and analyzed by HPLC and freezing point depression. A separate protocol was prepared for each individual experiment.

[5] = pH dependence of solubility / precipitation of the free base in water; type: physicochemical
Description: From pH 5.5, the free base consequently precipitates, if this is not prevented by the addition of suitable excipients.
(§6) One finding from the previous Examples was that there is a range between pH 5 and 6 in which 60 mg/ml API can be dissolved. Strong precipitation of the free base only occurs above a pH of 5.9 according to the observation. Based on this observation, it was decided to investigate two compendial buffer systems (citrate and phosphate buffer) for their ability to hold 60 mg/ml of R-ketamine in solution and stabilize the formulation against pH shifts. Another change was that the pH adjustment was done with 0.15 N NaOH instead of 1 N NaOH in the following experiments. This change was underdone because there were concerns that the very alkaline microenvironment around the drops of sodium hydroxide solution would lead to the formation of flakes that were difficult to dissolve.
The solubility of R-ketamine is strongly pH dependent. In the acidic pH range, the active ingredient is readily soluble, while precipitation occurs at pH values greater than 5.7-5.9. A careful choice of formulation parameters allows the requirements of the application route to be reconciled with the dissolution behavior of the active ingredient. The way in which the pH is adjusted also has a major influence. By using low-concentration alkalis, the formation of highly alkaline microenvironments around the dropping point could be avoided. This prevents the formation of active ingredient flocs that are difficult to dissolve again.

[6] = Phosphate buffer: tonicity by freezing point depression; type: physicochemical
Description: as §1, §2, §3

[7] = Initial tests with maleic acid buffering: dissolution behaviour and pH; type: physicochemical
Description: Due to its ability to act as a buffer in the acidic to neutral range, a 0.02 M aqueous maleic acid solution was proposed as the base formulation. The aim was to investigate the dissolving capacity for R-ketamine in the concentration range of 60, 80 and 100 mg/ml at pH 5.5 and 5.7 (after the feasibility test with a pH of 5.8 had to be considered as failed) and the stability of the formulations in a study for four weeks.
In an initial feasibility test, the dissolution behaviour of R-ketamine was investigated in the presence of maleic acid. Pure water was used as a comparison. In an aqueous solution of 60 mg/ml R-ketamine without buffering, a pH of 4.65 was obtained. If the same amount of R-ketamine was dissolved in a 0.02 M maleic acid buffer adjusted to pH 5.75, the pH decreased to a value of 5.38.

[8] = Solubility profile in solvents
[9] = pH 5.5
[10] = Citrate buffer: content of filtered sample by HPLC, visual precipitation; type: physicochemical
Description: as §6, §1

[11] = Cyclodextrin inclusion: tonicity by freezing point depression; type: physicochemical
Description: as §4, §5

[12] = Citrate buffer: tonicity by freezing point depression; type: physicochemical
Description: as §6, §1

[13] = Cosolvent screening: tonicity by freezing point depression; type: physicochemical
Description: (§7) For cosolvent screening, a set of possible candidates was identified. Specifically, 5% sulfobutyl-ether-β-cyclodextrin (SBE7), polyethylene glycol 400 (PEG 400), glycerol, propylene glycol, and 5% polysorbate 80 were to be screened at pH 5 and 6. Unless otherwise specified, cosolvents were screened at 20% and 50% (m/V). As a control, the solubility of R-ketamine in water was studied at pH 5 and 6.
(§8) The test solution consisting of water for injection. The respective cosolvent was prepared and the active substance was dissolved to a nominal concentration of 100 mg/ml (equaling 86.96 mg/ml free base). The pH was then adjusted to pH 5 with 1N NaOH and a sample was obtained under filtration (0.22 μm). Thereafter, the pH was further increased to pH 6 and another sample was taken (also filtered). Both samples were analyzed for assay and tonicity by HPLC and freezing point depression.
(§9) • Batch size: 90 g/pH set at end of compounding (1N NaOH/1N HCl)

[14] = Hygroscopicity, DVS experiments; type: physicochemical; conditions: between 50% RH to 90% RH in DVS experiments
[15] = Cosolvent screening: assay of filtered sample by HPLC; type: physicochemical
Description: as §7, §8, §9

[16] = phosphate buffer pH 5.8, nominal 60 mg/ml (52.2 mg/ml free base)
[17] = phosphate buffer pH 5.8, nominal 70 mg/ml (60.9 mg/ml free base)
[18] = Cyclodextrin (HPB) 20 %, pH 4.5
[19] = Cyclodextrin (HPB) 20 %, pH 7.5
[20] = 60 mg/ml in 20 mM citrate buffer, pH 5.4
[21] = 60 mg/ml in 20 mM citrate buffer, pH 5.6
[22] = 60 mg/ml in 20 mM citrate buffer, pH 5.8
[23] = 70 mg/ml (60.9 mg/ml free base) in citrate buffer, pH 5.8

CN[C@@]1(c2ccccc2Cl)CCCCC1=O [R-ketamine, (2R)-2-(2-chlorophenyl)-2-(methylamino)cyclohexan-1-one]
shelf life / precipitation on storage [1]: fine crystalline precipitate was observed; also recorded: precipitation | Assay [2, 16]: 51.2 mg/ml free base | Assay [2, 17]: 59.7 mg/ml free base | visible precipitation after pH adjustment and filtration ([2]; phosphate buffer pH 5.8, nominal 60 and 70 mg/ml): no visible precipitation | logP [3]: 2.18 | Assay ([4]; Cyclodextrin (HPB) 0 %, pH 4.5): 88.9 mg/mL | Assay ([4]; Cyclodextrin (HPB) 0 %, pH 7.5): 0.9 mg/mL | Assay ([4]; Cyclodextrin (HPB) 10 %, pH 6): 26.8 mg/mL and 29.6 mg/mL | Assay [4, 18]: 93.9 mg/mL | Assay [4, 19]: 11.1 mg/mL | pH from which the free base precipitates ([5]; in water, without suitable excipients, Henderson-Hasselbalch, FIG. 1): ≥ 5.5 | pH above which precipitation of the free base occurs ([5]; observed in the experiments): > 5.9 and 5.7-5.9 | API that can be dissolved ([5]; range between pH 5 and 6): 60 mg/mL | Tonicity [6, 16]: 476 mOsmol/kg | Tonicity [6, 17]: 545 mOsmol/kg | pKa (pKa (general properties)): 7.5 | pH after dissolving ([7]; 60 mg/ml in 0.02 M maleic acid buffer adjusted to pH 5.75): 5.38 | pH obtained ([7]; aqueous solution of 60 mg/ml R-ketamine without buffering): 4.65 | precipitation on raising the pH to 5.8 ([7]; maleic acid buffer, pH raised to 5.8 with 0.15 M NaOH): without precipitation | Solubility Classification (EP) ([8]; 1-propanol): Sparingly soluble | solubility ([8]; 1-propanol, organic solvent or mixture): 13 to 15 mg/mL (≈ 54.7 to 63.1 mM) | Solubility Classification (EP) ([8]; 2-propanol): Slightly soluble | solubility ([8]; 2-propanol, organic solvent or mixture): ~4 mg/mL (≈ 16.8 mM) | Solubility Classification (EP) ([8]; Acetone, acetonitrile, anisole, ethyl acetate, heptane, methyl ethyl ketone, methyl iso-butyl ketone, tetrahydrofuran, methyl tert-butyl ether): Very slightly soluble | Solubility Classification (EP) ([8]; DMSO, Ethanol): Sparingly soluble | solubility ([8]; DMSO, ethanol, organic solvent or mixture): 20 to 30 mg/mL (≈ 84.1 to 126 mM) | Solubility Classification (EP) ([8]; Methanol): Soluble | Solubility Classification (EP) ([8]; Water): Freely soluble | solubility ([8]; methanol, organic solvent or mixture): 50 to 100 mg/mL (≈ 210 to 421 mM) | solubility ([8]; organic solvent or mixture): < 1 mg/mL | solubility ([8]; water): > 140 mg/mL | solubility ([8]; water, pH 4, water): > 140 mg/mL | decrease of pH over the study, average [9]: 0.2 pH units | four-week stability assay [9]: satisfactory stability | Assay ([10]; 60 mg/ml (52.2 mg/ml free base) in 20 mM citrate buffer, pH 5.2): 46.2 mg/mL | Assay [10, 20]: 46.1 mg/mL | Assay [10, 21]: 46.4 mg/mL | Assay [10, 22]: 47.2 mg/mL | visual precipitation ([10]; 60 mg/ml in citrate buffer, pH 5.2-5.8): no precipitation could be detected visually | content found ([10]; 60 mg/ml in citrate buffer, range of pH 5.2-5.8): about 46.5 mg/ml | Assay [10, 23]: 46.2 mg/mL | precipitation after pH adjustment [10, 23]: precipitation was observed | Tonicity ([11]; Cyclodextrin (HPB) 0 %, pH 4.5): 644 mOsmol | Tonicity ([11]; Cyclodextrin (HPB) 0 %, pH 7.5): 522 mOsmol | Tonicity ([11]; Cyclodextrin (HPB) 10 %, pH 6): 680 mOsmol and 683 mOsmol | Tonicity [11, 18]: 638 mOsmol | Tonicity [11, 19]: 546 mOsmol | Tonicity ([12]; 60 mg/ml in 20 mM citrate buffer, pH 5.2): 534 mOsmol/kg | Tonicity [12, 20]: 540 mOsmol/kg | Tonicity [12, 21]: 546 mOsmol/kg | Tonicity [12, 22]: 561 mOsmol/kg | Tonicity ([12]; 70 mg/ml in citrate buffer, pH 5.8): 556 mOsmol/kg | Tonicity ([13]; Glycerol 20%, pH 6.0): 1445 mOsmol | Tonicity ([13]; PEG 20%, pH 6.0): 695 mOsmol | Tonicity ([13]; Tween 5%, pH 5.0): 686 mOsmol | Tonicity ([13]; Tween 5%, pH 6.0): 602 mOsmol | Tonicity ([13]; Water for injection, pH 5.0): 651 mOsmol | Tonicity ([13]; Water for injection, pH 6.0): 568 mOsmol | Hygroscopicity [14]: Not hygroscopic, no moisture uptake | Assay ([15]; Glycerol 20%, pH 6.0): 19.1 mg/mL | Assay ([15]; Glycerol 50%, pH 6.0): 20.2 mg/mL | Assay ([15]; PEG 20%, pH 6.0): 19.9 mg/mL | Assay ([15]; PEG 50%, pH 6.0): 21.6 mg/mL | Assay ([15]; Propylene glycol 20%, pH 6.0): 24.5 mg/mL | Assay ([15]; Propylene glycol 50%, pH 6.0): 46.5 mg/mL | Assay ([15]; Tween 5%, pH 5.0): 89.2 mg/mL | Assay ([15]; Tween 5%, pH 6.0): 18.8 mg/mL | Assay ([15]; Water for injection, pH 5.0, nominal 100 mg/ml (86.96 mg/ml free base)): 88.6 mg/mL | Assay ([15]; Water for injection, pH 6.0): 19.7 mg/mL
